Results published in ChEMBL document CHEMBL1132232, “7alpha-Iodo and 7alpha-fluoro steroids as androgen receptor-mediated imaging agents” (J Med Chem, 1999).

Tests used:
[1] = target: T1, Androgen receptor (Homo sapiens) (UniProt P10275); settings: CV-1
T1 sequence (whole entry): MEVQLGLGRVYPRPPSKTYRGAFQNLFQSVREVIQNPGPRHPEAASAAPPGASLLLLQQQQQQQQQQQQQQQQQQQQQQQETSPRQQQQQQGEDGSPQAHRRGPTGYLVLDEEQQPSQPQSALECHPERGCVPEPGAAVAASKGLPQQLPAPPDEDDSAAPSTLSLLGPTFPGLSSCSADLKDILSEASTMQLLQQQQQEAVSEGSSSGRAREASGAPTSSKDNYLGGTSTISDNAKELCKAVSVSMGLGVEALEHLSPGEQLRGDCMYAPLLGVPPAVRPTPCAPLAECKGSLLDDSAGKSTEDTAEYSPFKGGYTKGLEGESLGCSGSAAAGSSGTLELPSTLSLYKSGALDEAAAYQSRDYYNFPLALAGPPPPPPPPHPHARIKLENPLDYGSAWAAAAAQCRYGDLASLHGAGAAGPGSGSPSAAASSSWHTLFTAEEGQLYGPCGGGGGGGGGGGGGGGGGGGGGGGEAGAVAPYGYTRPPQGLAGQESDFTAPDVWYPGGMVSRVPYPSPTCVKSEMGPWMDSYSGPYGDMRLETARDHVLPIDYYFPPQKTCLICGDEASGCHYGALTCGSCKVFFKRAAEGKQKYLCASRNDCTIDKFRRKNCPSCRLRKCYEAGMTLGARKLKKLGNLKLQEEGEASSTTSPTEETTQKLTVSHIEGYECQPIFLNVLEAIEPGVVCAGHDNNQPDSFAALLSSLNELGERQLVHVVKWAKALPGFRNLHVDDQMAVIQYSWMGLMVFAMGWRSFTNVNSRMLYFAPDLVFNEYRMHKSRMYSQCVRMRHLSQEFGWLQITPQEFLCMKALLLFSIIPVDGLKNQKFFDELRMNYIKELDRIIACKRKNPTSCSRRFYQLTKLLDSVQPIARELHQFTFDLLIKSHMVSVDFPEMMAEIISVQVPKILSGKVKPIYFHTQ
Description: Relative stimulatory activity compared to 5-alpha-DHT in CV-1 cells expressing androgen receptor

Rattus norvegicus [2] = test: Distribution of tissue Radioactivity following Intravenous injection into castrated male rat prostate/blood; format: ADME, organism-based; settings: other tissue
Rattus norvegicus [3] = test: Distribution of tissue Radioactivity following Intravenous injection into castrated male rat and 5-alpha-DHT was reported; format: ADME, organism-based; settings: in vivo

Structure (SMILES) | RSA [1] | Biodistribution (Rattus norvegicus [2]) [%] | Biodistribution (Rattus norvegicus [3]) [%]
C[C@]12CC[C@@H]3C4CCC(=O)CC4C[C@@H](F)[C@H]3[C@@H]1CC[C@@H]2O (stereo partly specified) | 44 | – | –
CC12CC[C@@H]3C4CCC(=O)CC4C[C@@H](I)[C@H]3[C@@H]1CC[C@]2(C)O (stereo partly specified) | 8 | – | –
CC12CC[C@H]3[C@@H]([C@H](I)CC4CC(=O)CCC43C)[C@@H]1CCC2O (stereo partly specified) | 20 | 1.34 | 0.94
CC12CCC(=O)CC1C[C@@H](F)[C@@H]1[C@@H]2CCC2(C)[C@H]1CC[C@]2(C)O (stereo partly specified) | 418 | – | –
